Test results as given in US20230085307A1, “PYRIDAZINONE COMPOUND AND HERBICIDE” (NISSAN CHEMICAL CORPORATION, priority 2019, published 2023).

How the values were obtained:
barnyard grass [1] = experiment: Test Example 3: herbicidal effect by foliage application, Wagner pot (Table 18, symbol H); assay type: in vivo, barnyard grass (Echinochloa crus-galli); details: 320 g/ha
In short: (§1)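 Plants were sown in alluvial soil held under 0.1–0.5 cm standing water and grown 14 days in a greenhouse at 25–30 °C. An emulsifiable formulation, water-diluted to the set dose, was then sprayed onto the foliage, and effects were scored three weeks later using previously defined criteria.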

Chinese sprangletop = experiment: Test Example 3: herbicidal effect by foliage application, Wagner pot (Table 18, symbol D); assay type: in vivo, chinese sprangletop (Leptochloa chinensis); details: 320 g/ha
In short: as §1

rice flat sedge = experiment: Test Example 3: herbicidal effect by foliage application, Wagner pot (Table 18, symbol E); assay type: in vivo, rice flat sedge (Cyperus iria); details: 320 g/ha
In short: as §1

southern crabgrass [2] = experiment: Test Example 4: herbicidal effect by soil treatment (Table 19, symbol F); assay type: in vivo, southern crabgrass (Digitaria ciliaris); details: AAH 320 g/ha
In short: (§2)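 In this soil treatment, the formulated compound reached the seeds only through the soil: seeds were buried about 1.5 cm deep in sterilized diluvial soil, then the diluted emulsion was sprayed over the surface. After three weeks at 25° C. to 30° C. in a greenhouse, effects were graded on criteria from an earlier test.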

green foxtail [3] = experiment: Test Example 4: herbicidal effect by soil treatment (Table 19, symbol G); assay type: in vivo, green foxtail (Setaria viridis); details: AAH 320 g/ha
In short: as §2

barnyard grass [4] = experiment: Test Example 4: herbicidal effect by soil treatment (Table 19, symbol H); assay type: in vivo, barnyard grass (Echinochloa crus-galli); details: AAH 320 g/ha
In short: as §2

wild oat [5] = experiment: Test Example 4: herbicidal effect by soil treatment (Table 19, symbol I); assay type: in vivo, wild oat (Avena fatua); details: AAH 320 g/ha
In short: as §2

blackgrass [6] = experiment: Test Example 4: herbicidal effect by soil treatment (Table 19, symbol J); assay type: in vivo, blackgrass (Alopecurus myosuroides); details: AAH 320 g/ha
In short: as §2

Italian ryegrass [7] = experiment: Test Example 4: herbicidal effect by soil treatment (Table 19, symbol K); assay type: in vivo, Italian ryegrass (Lolium multiflorum); details: AAH 320 g/ha
In short: as §2

windgrass [8] = experiment: Test Example 4: herbicidal effect by soil treatment (Table 19, symbol L); assay type: in vivo, windgrass (Apera spica-venti); details: AAH 320 g/ha
In short: as §2

velvetleaf [9] = experiment: Test Example 4: herbicidal effect by soil treatment (Table 19, symbol M); assay type: in vivo, velvetleaf (Abutilon theophrasti); details: AAH 320 g/ha
In short: as §2

redroot pigweed [10] = experiment: Test Example 4: herbicidal effect by soil treatment (Table 19, symbol N); assay type: in vivo, redroot pigweed (Amaranthus retroflexus); details: AAH 320 g/ha
In short: as §2

lambsquarters [11] = experiment: Test Example 4: herbicidal effect by soil treatment (Table 19, symbol O); assay type: in vivo, lambsquarters (Chenopodium album); details: AAH 320 g/ha
In short: as §2

chickweed [12] = experiment: Test Example 4: herbicidal effect by soil treatment (Table 19, symbol P); assay type: in vivo, common chickweed (Stellaria media); details: AAH 320 g/ha
In short: as §2

persian speedwell [13] = experiment: Test Example 4: herbicidal effect by soil treatment (Table 19, symbol R); assay type: in vivo, Persian speedwell (Veronica persica); details: AAH 320 g/ha
In short: as §2

southern crabgrass [14] = experiment: Test Example 5: herbicidal effect by foliage application, plastic box (Table 20, symbol F); assay type: in vivo, southern crabgrass (Digitaria ciliaris); details: foliage application, AAH 320 g/ha, three weeks after application
In short: (§3)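 Plants were sown into sterilized diluvial soil under about 1.5 cm cover and kept in a greenhouse at 25° C. to 30° C. Fourteen days on, foliage received an even spray of the diluted emulsion. Herbicidal or crop effect was judged three weeks afterwards.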

green foxtail [15] = experiment: Test Example 5: herbicidal effect by foliage application, plastic box (Table 20, symbol G); assay type: in vivo, green foxtail (Setaria viridis); details: foliage application, AAH 320 g/ha, three weeks after application
In short: as §3

barnyard grass [16] = experiment: Test Example 5: herbicidal effect by foliage application, plastic box (Table 20, symbol H); assay type: in vivo, barnyard grass (Echinochloa crus-galli); details: foliage application, AAH 320 g/ha, three weeks after application
In short: as §3

wild oat [17] = experiment: Test Example 5: herbicidal effect by foliage application, plastic box (Table 20, symbol I); assay type: in vivo, wild oat (Avena fatua); details: foliage application, AAH 320 g/ha, three weeks after application
In short: as §3

blackgrass [18] = experiment: Test Example 5: herbicidal effect by foliage application, plastic box (Table 20, symbol J); assay type: in vivo, blackgrass (Alopecurus myosuroides); details: foliage application, AAH 320 g/ha, three weeks after application
In short: as §3

Italian ryegrass [19] = experiment: Test Example 5: herbicidal effect by foliage application, plastic box (Table 20, symbol K); assay type: in vivo, Italian ryegrass (Lolium multiflorum); details: foliage application, AAH 320 g/ha, three weeks after application
In short: as §3

windgrass [20] = experiment: Test Example 5: herbicidal effect by foliage application, plastic box (Table 20, symbol L); assay type: in vivo, windgrass (Apera spica-venti); details: foliage application, AAH 320 g/ha, three weeks after application
In short: as §3

velvetleaf [21] = experiment: Test Example 5: herbicidal effect by foliage application, plastic box (Table 20, symbol M); assay type: in vivo, velvetleaf (Abutilon theophrasti); details: foliage application, AAH 320 g/ha, three weeks after application
In short: as §3

redroot pigweed [22] = experiment: Test Example 5: herbicidal effect by foliage application, plastic box (Table 20, symbol N); assay type: in vivo, redroot pigweed (Amaranthus retroflexus); details: foliage application, AAH 320 g/ha, three weeks after application
In short: as §3

lambsquarters [23] = experiment: Test Example 5: herbicidal effect by foliage application, plastic box (Table 20, symbol O); assay type: in vivo, lambsquarters (Chenopodium album); details: foliage application, AAH 320 g/ha, three weeks after application
In short: as §3

chickweed [24] = experiment: Test Example 5: herbicidal effect by foliage application, plastic box (Table 20, symbol P); assay type: in vivo, common chickweed (Stellaria media); details: foliage application, AAH 320 g/ha, three weeks after application
In short: as §3

persian speedwell [25] = experiment: Test Example 5: herbicidal effect by foliage application, plastic box (Table 20, symbol R); assay type: in vivo, Persian speedwell (Veronica persica); details: foliage application, AAH 320 g/ha, three weeks after application
In short: as §3

SMILES	herbicidal effect on H (barnyard grass), rating 0-5 (barnyard grass [1])	herbicidal effect on D (Chinese sprangletop), rating 0-5 (Chinese sprangletop)	herbicidal effect on E (rice flat sedge), rating 0-5 (rice flat sedge)	F: southern crabgrass, herbicidal effect rating (southern crabgrass [2])	G: green foxtail, herbicidal effect rating (green foxtail [3])	H: barnyard grass, herbicidal effect rating (barnyard grass [4])	I: wild oat, herbicidal effect rating (wild oat [5])	J: blackgrass, herbicidal effect rating (blackgrass [6])	K: Italian ryegrass, herbicidal effect rating (Italian ryegrass [7])	L: windgrass, herbicidal effect rating (windgrass [8])	M: velvetleaf, herbicidal effect rating (velvetleaf [9])	N: redroot pigweed, herbicidal effect rating (redroot pigweed [10])	O: lambsquarters, herbicidal effect rating (lambsquarters [11])	P: chickweed, herbicidal effect rating (chickweed [12])	R: persian speedwell, herbicidal effect rating (persian speedwell [13])	F: southern crabgrass, herbicidal effect (southern crabgrass [14])	G: green foxtail, herbicidal effect (green foxtail [15])	H: barnyard grass, herbicidal effect (barnyard grass [16])	I: wild oat, herbicidal effect (wild oat [17])	J: blackgrass, herbicidal effect (blackgrass [18])	further results
C=CCOc1ccc(-c2sc3ccccc3c2-c2c(O)c(C)nn(C)c2=O)cc1 [1-139]	5 (Herbicidal rate of 90% or more (almost completely withered))	0 (Herbicidal rate of 5% or less (almost no effect))	5 (Herbicidal rate of 90% or more (almost completely withered))	0 (Herbicidal rate of 5% or less (almost no effect))	3 (Herbicidal rate of 40% or more and less than 70%)	4 (Herbicidal rate of 70% or more and less than 90%)	0 (Herbicidal rate of 5% or less (almost no effect))	0 (Herbicidal rate of 5% or less (almost no effect))	5 (Herbicidal rate of 90% or more (almost completely withered))	3 (Herbicidal rate of 40% or more and less than 70%)	2 (Herbicidal rate of 20% or more and less than 40%)	5 (Herbicidal rate of 90% or more (almost completely withered))	4 (Herbicidal rate of 70% or more and less than 90%)	5 (Herbicidal rate of 90% or more (almost completely withered))	5 (Herbicidal rate of 90% or more (almost completely withered))	5 (Herbicidal rate of 90% or more (almost completely withered))	5 (Herbicidal rate of 90% or more (almost completely withered))	5 (Herbicidal rate of 90% or more (almost completely withered))	4 (Herbicidal rate of 70% or more and less than 90%)	4 (Herbicidal rate of 70% or more and less than 90%)	K: Italian ryegrass, herbicidal effect (Italian ryegrass [19]): 5 (Herbicidal rate of 90% or more (almost completely withered)); L: windgrass, herbicidal effect (windgrass [20]): 5 (Herbicidal rate of 90% or more (almost completely withered)); M: velvetleaf, herbicidal effect (velvetleaf [21]): 4 (Herbicidal rate of 70% or more and less than 90%); N: redroot pigweed, herbicidal effect (redroot pigweed [22]): 5 (Herbicidal rate of 90% or more (almost completely withered)); O: lambsquarters, herbicidal effect (lambsquarters [23]): 4 (Herbicidal rate of 70% or more and less than 90%); P: chickweed, herbicidal effect (chickweed [24]): 5 (Herbicidal rate of 90% or more (almost completely withered)); R: persian speedwell, herbicidal effect (persian speedwell [25]): 5 (Herbicidal rate of 90% or more (almost completely withered))
COc1nn(C)c(=O)c(-c2c(-c3ccc([N+](=O)[O-])cc3)sc3ccccc23)c1O [1-168]	0 (Herbicidal rate of 5% or less (almost no effect))	0 (Herbicidal rate of 5% or less (almost no effect))	3 (Herbicidal rate of 40% or more and less than 70%)	0 (Herbicidal rate of 5% or less (almost no effect))	0 (Herbicidal rate of 5% or less (almost no effect))	0 (Herbicidal rate of 5% or less (almost no effect))	0 (Herbicidal rate of 5% or less (almost no effect))	0 (Herbicidal rate of 5% or less (almost no effect))	0 (Herbicidal rate of 5% or less (almost no effect))	0 (Herbicidal rate of 5% or less (almost no effect))	0 (Herbicidal rate of 5% or less (almost no effect))	1 (Herbicidal rate of 5% or more and less than 20%)	0 (Herbicidal rate of 5% or less (almost no effect))	4 (Herbicidal rate of 70% or more and less than 90%)	3 (Herbicidal rate of 40% or more and less than 70%)	3 (Herbicidal rate of 40% or more and less than 70%)	3 (Herbicidal rate of 40% or more and less than 70%)	2 (Herbicidal rate of 20% or more and less than 40%)	0 (Herbicidal rate of 5% or less (almost no effect))	0 (Herbicidal rate of 5% or less (almost no effect))	K: Italian ryegrass, herbicidal effect (Italian ryegrass [19]): 2 (Herbicidal rate of 20% or more and less than 40%); L: windgrass, herbicidal effect (windgrass [20]): 0 (Herbicidal rate of 5% or less (almost no effect)); M: velvetleaf, herbicidal effect (velvetleaf [21]): 4 (Herbicidal rate of 70% or more and less than 90%); N: redroot pigweed, herbicidal effect (redroot pigweed [22]): 5 (Herbicidal rate of 90% or more (almost completely withered)); O: lambsquarters, herbicidal effect (lambsquarters [23]): 4 (Herbicidal rate of 70% or more and less than 90%); P: chickweed, herbicidal effect (chickweed [24]): 5 (Herbicidal rate of 90% or more (almost completely withered)); R: persian speedwell, herbicidal effect (persian speedwell [25]): 5 (Herbicidal rate of 90% or more (almost completely withered))
